From patent US20250368666A1, “INDAZOLE COMPOUNDS” (TYRA BIOSCIENCES, INC., priority 2022, published 2025)
Where a name gives a salt, the structure may show the parent alone.

Assays:
FGFR2 = biological target: T1, FGFR2 (Homo sapiens, UniProt P21802); test: Kinase binding assay (kinase-tagged T7 phage, affinity beads, qPCR), Kd; settings: read-out: FGFR2 (Kd nM)
T1 construct: made in house; host or cells: E. coli (BL21-derived), T7 phage
In short: (§1)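 Phage-tagged kinase capture on small-molecule affinity resin, compound competition, qPCR quantitation; Kd from Levenberg-Marquardt Hill fit.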

FGFR4 = biological target: T2, FGFR4 (Homo sapiens, UniProt P22455); test: as above; settings: read-out: FGFR4 (Kd nM)
T2 construct: made in house; host or cells: E. coli (BL21-derived), T7 phage
In short: as §1

FGFR3 = biological target: T3, FGFR3 (Homo sapiens, UniProt P22607); test: as above; settings: read-out: FGFR3 (Kd nM)
T3 construct: made in house; host or cells: E. coli (BL21-derived), T7 phage
In short: as §1

FGFR1 = biological target: T4, FGFR1 (Homo sapiens, UniProt P11362); test: as above; settings: read-out: FGFR1 (Kd nM)
T4 construct: made in house; host or cells: E. coli (BL21-derived), T7 phage
In short: as §1

[1] = system: HuH7 cell line (FGF19 amplification); test: Cancer cell line cell viability assay (Cell Titer-Glo), 120 hr; assay type: cell-based; settings: Homo sapiens, Huh-7
Description: Experimental Purpose: To detect the change of intracellular ATP by Cell Titer-Glo® and to evaluate the inhibitory effect of the compounds on cancer cell lines by determining the in vitro IC50 value of the compounds.
Cell Titer-Glo® 2.0 Luminescent cell viability assay reagent was purchased from Promega (Madison, WI). KG-1, KATO-III, and MDA-MB-453 cell lines were purchased from American Type Culture Collection (Manassas, VA). RT112/84 cell line was purchased from Millipore-Sigma (St. Louis, MO). HuH7 cells were purchased from Seikisui Xenotech (Kansas City, KS). RT112/84 and MDA-MB-453 cells were cultured in RPMI1640 media supplemented with 10% fetal bovine serum. KG-1 and KATO-III cell lines were cultured in IMDM media supplemented with 20% FBS. HuH7 cells were cultured in IMDM media supplemented with 10% FBS. Cultures were maintained at 37° C. in a humidified atmosphere of 5% CO2 and 95% air.
Cell Viability Assay Procedure: Cells were plated in 96-well clear bottom/white plates (Corning #3903) at a range of densities depending on the optimal assay window (5,000-20,000 cells/well in […] of media), incubated overnight. The next day, test compound DMSO stock solutions were made at 10 mM and […] final concentration. Compounds were then added to cells in a 9-dose, 4-fold dilution series starting at 3 μM with an HP 300e Digital Dispenser (each dose was applied in triplicate). DMSO was backfilled to each well up to 301 nL total volume of test compound+DMSO, and a total of 301 nL DMSO was added to a control/no test compound well in triplicate. The cells in cell culture plates were incubated with the compounds at 37° C. and 5% CO2 for 72 hours-120 hours depending on the cell line. Then 50 μl of Cell Titer Glo 2.0 reagent was added to each well of the cell culture plates. The contents were covered from light and mixed on an orbital shaker at room temperature for minimum of 10 min. Luminescence was recorded by a Clariostar Plus Microplate Reader (BMG Labtech, Cary, NC). Cells were assessed as a percentage of DMSO only treated control cells. Curves were plotted and IC50 values were calculated using the GraphPad Prism 9 program based on a sigmoidal dose-response equation (log (inhibitor) vs. response—Variable slope, 4-parameter).

T3 sequence (P22607 23-806): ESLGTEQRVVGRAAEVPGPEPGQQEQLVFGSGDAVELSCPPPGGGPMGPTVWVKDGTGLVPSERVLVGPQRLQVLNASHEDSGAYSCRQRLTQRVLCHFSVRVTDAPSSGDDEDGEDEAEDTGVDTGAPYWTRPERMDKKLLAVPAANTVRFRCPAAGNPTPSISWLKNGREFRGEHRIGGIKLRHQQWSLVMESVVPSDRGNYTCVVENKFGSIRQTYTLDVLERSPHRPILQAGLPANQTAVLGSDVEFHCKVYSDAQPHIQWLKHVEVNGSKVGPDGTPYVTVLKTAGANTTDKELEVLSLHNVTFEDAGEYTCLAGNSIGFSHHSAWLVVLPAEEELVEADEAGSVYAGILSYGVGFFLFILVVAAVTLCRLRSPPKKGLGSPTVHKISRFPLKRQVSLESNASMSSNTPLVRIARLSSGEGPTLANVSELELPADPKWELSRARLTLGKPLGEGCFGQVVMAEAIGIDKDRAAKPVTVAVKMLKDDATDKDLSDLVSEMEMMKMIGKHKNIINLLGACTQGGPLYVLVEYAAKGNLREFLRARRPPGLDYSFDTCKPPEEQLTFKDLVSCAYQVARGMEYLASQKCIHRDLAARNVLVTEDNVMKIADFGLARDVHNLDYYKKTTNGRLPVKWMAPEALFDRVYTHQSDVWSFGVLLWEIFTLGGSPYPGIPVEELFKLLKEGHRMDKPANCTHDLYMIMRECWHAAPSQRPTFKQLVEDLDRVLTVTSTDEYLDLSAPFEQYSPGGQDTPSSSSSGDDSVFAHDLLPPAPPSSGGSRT
T2 sequence (P22455 22-802): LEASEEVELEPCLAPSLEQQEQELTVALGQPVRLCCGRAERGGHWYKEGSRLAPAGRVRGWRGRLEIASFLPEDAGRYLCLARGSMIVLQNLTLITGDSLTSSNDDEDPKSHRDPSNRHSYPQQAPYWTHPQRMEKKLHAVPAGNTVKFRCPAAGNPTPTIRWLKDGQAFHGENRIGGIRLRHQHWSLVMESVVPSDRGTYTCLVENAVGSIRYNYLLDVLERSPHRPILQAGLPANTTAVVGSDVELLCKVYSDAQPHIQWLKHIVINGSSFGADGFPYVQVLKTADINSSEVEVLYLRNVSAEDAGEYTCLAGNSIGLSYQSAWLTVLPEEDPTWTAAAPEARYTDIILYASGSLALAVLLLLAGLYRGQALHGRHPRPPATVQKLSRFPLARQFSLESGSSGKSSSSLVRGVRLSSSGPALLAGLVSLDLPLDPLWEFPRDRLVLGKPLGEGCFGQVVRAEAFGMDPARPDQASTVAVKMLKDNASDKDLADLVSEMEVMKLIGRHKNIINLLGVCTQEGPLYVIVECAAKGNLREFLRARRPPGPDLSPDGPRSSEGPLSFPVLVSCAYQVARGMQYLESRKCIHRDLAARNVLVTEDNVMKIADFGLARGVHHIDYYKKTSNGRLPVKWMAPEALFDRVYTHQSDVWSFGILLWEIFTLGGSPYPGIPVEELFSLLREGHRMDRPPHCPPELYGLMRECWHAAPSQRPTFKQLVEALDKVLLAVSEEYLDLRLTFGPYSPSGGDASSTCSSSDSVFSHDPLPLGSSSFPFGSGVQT
T1 sequence (P21802 22-821): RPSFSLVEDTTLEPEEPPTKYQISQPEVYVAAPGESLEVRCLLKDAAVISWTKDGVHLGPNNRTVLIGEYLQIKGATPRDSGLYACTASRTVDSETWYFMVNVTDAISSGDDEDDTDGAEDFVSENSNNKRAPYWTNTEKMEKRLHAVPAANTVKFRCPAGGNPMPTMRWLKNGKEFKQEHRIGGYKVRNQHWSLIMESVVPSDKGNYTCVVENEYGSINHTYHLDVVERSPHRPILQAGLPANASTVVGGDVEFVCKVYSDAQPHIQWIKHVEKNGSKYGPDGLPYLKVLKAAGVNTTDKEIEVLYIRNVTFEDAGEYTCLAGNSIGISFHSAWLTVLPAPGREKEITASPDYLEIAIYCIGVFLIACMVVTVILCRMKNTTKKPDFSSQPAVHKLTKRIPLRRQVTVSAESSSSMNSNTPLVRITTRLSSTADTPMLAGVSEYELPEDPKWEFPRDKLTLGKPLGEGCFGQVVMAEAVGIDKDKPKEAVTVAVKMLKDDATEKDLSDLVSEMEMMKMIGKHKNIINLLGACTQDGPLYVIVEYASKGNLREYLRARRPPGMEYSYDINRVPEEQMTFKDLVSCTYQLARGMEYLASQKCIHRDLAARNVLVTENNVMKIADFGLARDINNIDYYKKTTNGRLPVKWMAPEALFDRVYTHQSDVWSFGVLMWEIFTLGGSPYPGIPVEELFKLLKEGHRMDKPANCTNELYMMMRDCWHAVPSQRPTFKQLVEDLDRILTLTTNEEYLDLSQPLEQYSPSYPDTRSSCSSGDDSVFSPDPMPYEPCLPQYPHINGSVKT
T4 sequence (P11362 22-822): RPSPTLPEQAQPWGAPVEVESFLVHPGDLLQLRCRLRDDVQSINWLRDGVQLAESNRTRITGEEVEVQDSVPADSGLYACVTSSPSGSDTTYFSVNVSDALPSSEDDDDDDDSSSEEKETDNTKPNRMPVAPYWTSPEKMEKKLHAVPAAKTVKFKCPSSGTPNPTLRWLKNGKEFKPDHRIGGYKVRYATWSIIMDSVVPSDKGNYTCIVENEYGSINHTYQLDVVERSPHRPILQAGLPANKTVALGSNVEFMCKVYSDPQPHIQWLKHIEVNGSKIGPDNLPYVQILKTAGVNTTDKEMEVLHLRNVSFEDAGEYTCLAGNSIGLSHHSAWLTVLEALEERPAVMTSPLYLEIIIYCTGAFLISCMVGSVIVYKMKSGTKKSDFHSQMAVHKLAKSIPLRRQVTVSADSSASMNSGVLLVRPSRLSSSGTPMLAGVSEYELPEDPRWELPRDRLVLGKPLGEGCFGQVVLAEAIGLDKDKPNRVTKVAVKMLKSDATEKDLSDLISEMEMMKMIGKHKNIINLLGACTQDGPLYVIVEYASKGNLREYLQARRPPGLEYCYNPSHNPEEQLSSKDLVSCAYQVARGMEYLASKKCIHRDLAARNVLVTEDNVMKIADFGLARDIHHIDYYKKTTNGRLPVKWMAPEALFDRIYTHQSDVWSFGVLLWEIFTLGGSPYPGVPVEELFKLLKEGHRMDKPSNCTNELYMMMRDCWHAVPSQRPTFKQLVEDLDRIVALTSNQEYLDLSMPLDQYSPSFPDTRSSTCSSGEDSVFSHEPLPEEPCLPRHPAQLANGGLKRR

Kd (FGFR2) [nM]	Kd (FGFR4) [nM]	Kd (FGFR3) [nM]	Kd (FGFR1) [nM]	IC50 [1] [nM]	SMILES
1 to 50	1 to 50	1 to 50	1 to 50	50 to 200	COc1cc2[nH]nc(-c3cc(C#N)c(N4CC(C)(NCC(C)C)C4)nn3)c2cc1O[C@H](C)c1c(Cl)cncc1Cl [Example 342, (R)-6-(5-(1-(3,5-dichloropyridin-4-yl)ethoxy)-6-methoxy-1H-indazol-3-yl)-3-(3-(isobutylamino)-3-methylazetidin-1-yl)pyridazine-4-carbonitrile]
1 to 50	1 to 50	1 to 50	1 to 50	0.1 to 50	COc1cc2[nH]nc(-c3cc(C#N)c(N4CC(C)(NCC5CC5)C4)nn3)c2cc1O[C@H](C)c1c(Cl)cncc1Cl [Example 347, (R)-3-(3-((cyclopropyl-methyl)amino)-3-methylazetidin-1-yl)-6-(5-(1-(3,5-dichloropyridin-4-yl)ethoxy)-6-methoxy-1H-indazol-3-yl)pyridazine-4-carbonitrile]
1 to 50	1 to 50	1 to 50	1 to 50	0.1 to 50	COc1cc2[nH]nc(-c3cc(C#N)c(N4CC(C)(N(C)C)C4)nn3)c2cc1O[C@H](C)c1c(Cl)cncc1Cl [Example 349, (R)-6-(5-(1-(3,5-dichloropyridin-4-yl)ethoxy)-6-methoxy-1H-indazol-3-yl)-3-(3-(dimethylamino)-3-methylazetidin-1-yl)pyridazine-4-carbonitrile]

Further lines, the compound ahead of its results:

SMILES	Kd (FGFR2) [nM]	Kd (FGFR4) [nM]	Kd (FGFR3) [nM]	Kd (FGFR1) [nM]	IC50 [1] [nM]
CCC1(NCC2CC2)CN(c2ncc(-c3n[nH]c4cc(OC)c(O[C@H](C)c5c(Cl)cncc5Cl)cc34)cc2C#N)C1 [Example 348, (R)-2-(3-((Cyclopropylmethyl)amino)-3-ethylazetidin-1-yl)-5-(5-(1-(3,5-dichloropyridin-4-yl)ethoxy)-6-methoxy-1H-indazol-3-yl)nicotinonitrile dihydrochloride]	1 to 50	1 to 50	1 to 50	1 to 50	0.1 to 50
COc1cc2[nH]nc(-c3cnc(N4CC(CC#N)(NCC5CC5)C4)c(C#N)c3)c2cc1O[C@H](C)c1c(Cl)cnc(C)c1Cl [Example 350, (R)-2-(3-(Cyanomethyl)-3-((cyclopropyl-methyl)ami-no)azetidin-1-yl)-5-(5-(1-(3,5-dichloro-2-methylpyridin-4-yl)ethoxy)-6-methoxy-1H-indazol-3-yl)nicotinonitrile]	1 to 50	1 to 50	1 to 50	50 to 300	0.1 to 50
COc1cc2[nH]nc(-c3cnc(N4CC(C)(NCC(C)C)C4)c(C#N)c3)c2cc1O[C@H](C)c1c(Cl)cnc(C)c1Cl [Example 355, 5-[5-[(1R)-1-(3,5-dichloro-2-methyl-4-pyridyl)ethoxy]-6-methoxy-1H-indazol-3-yl]-2-[3-(isobutylamino)-3-methyl-azetidin-1-yl]pyridine-3-carbonitrile]	50 to 300	1 to 50	1 to 50	1 to 50	50 to 200
COc1cc2[nH]nc(-c3cnc(N4CC(CC#N)(N(C)C(C)C)C4)c(C#N)c3)c2cc1O[C@H](C)c1c(Cl)cncc1Cl [Example 358, (R)-2-(3-(cyanomethyl)-3-(isopropyl(methyl)-amino)azetidin-1-yl)-5-(5-(1-(3,5-dichloropyridin-4-yl)ethoxy)-6-methoxy-1H-indazol-3-yl)nicotinonitrile]	50 to 300	1 to 50	1 to 50	1 to 50	0.1 to 50
COc1cc2[nH]nc(-c3cnc(N4CCC(C)(NCC5CC5)CC4)c(C#N)c3)c2cc1O[C@H](C)c1c(Cl)cncc1Cl [Example 411, (R)-2-(4-((cyclo-propylmethyl)amino)-4-methylpiperidin-1-yl)-5-(5-(1-(3,5-dichloropyridin-4-yl)ethoxy)-6-methoxy-1H-indazol-3-yl)nicotinonitrile]					0.1 to 50
